Results: PMC11661291, “Unique structural features in a deep-sea CYP51 relate to high pressure adaptation” (Research Square, 2024)

Assays:
C. armatus CYP51 [1] = biological target: T1, C. armatus CYP51 (Coryphaenoides armatus, UniProt Z9AQN8BZD8); experiment: Reconstituted catalytic activity, steady-state kinetic analysis of sterol 14α-demethylation; details: 0.25 μM P450, 1 μM CPR, 1 min reaction, 37 °C
Experimental: (§1) The samples were preincubated for 3 min at 37 °C in a shaking water bath, the reaction was initiated by the addition of 100 μM NADPH and stopped by the extraction of sterols with ethyl acetate. The extracted sterols were dried, dissolved in 100 μL of methanol, and the products were analyzed by reversed-phase HPLC equipped with a β-RAM detector (INUS Systems) using a Nova-Pak 3.9 mm × 150 mm (4 μm) octadecylsilane (C18) HPLC column. The products were separated with an isocratic mobile phase composed of acetonitrile and methanol (4:1 (v/v)) at a flow rate of 0.75 mL/min[9]. Michaelis-Menten parameters were calculated using GraphPad Prism. The kcat and Km values for each reaction were determined by fitting the data to a Michaelis–Menten hyperbola, with the reaction rates (nmol product formed/nmol P450/min) being plotted versus total substrate concentration.

C. armatus CYP51 [2] = biological target: T1, C. armatus CYP51; experiment: Spectral titrations with sterol substrates (type I spectral response); details: for Low-to-high spin state transition in the heme iron / Change in absorbance, ΔAmax per μM P450: sterol 0.25–3 μM; for Low-to-high spin state transition in the heme iron: 22 °C; for Change in absorbance, ΔAmax per μM P450: optical pathlength 1 cm
Experimental: Equal amounts of the HPCD solution were added to the reference cuvette to correct for the solvent-induced spectral perturbations, and the difference spectra were taken in the wavelength range of 350–500 nm. The apparent spectral dissociation constants of the enzyme-substrate complex (Kd) were calculated in GraphPad Prism software by fitting the data for the substrate-induced absorbance changes Δ(A390-A423) versus substrate concentration to a one site-total binding equation (binding-saturation).

C. armatus CYP51 [3] = biological target: T1, C. armatus CYP51; experiment: Inhibition of reconstituted enzymatic activity (decrease in substrate conversion in 1 h reaction); details: enzyme/inhibitor/substrate 1:50:50, 60 min, 0.5 μM P450
Experimental: as §1

human CYP51 [4] = biological target: human CYP51; set-up: method as in PMID 27313059; details: azole ligand; read-out: apparent dissociation constant (Kd); cited from earlier work
C. armatus CYP51 [5] = biological target: T1, C. armatus CYP51; experiment: Spectral titrations with azole-based ligands
Experimental: Titrations with azole-based compounds were carried out at 0.5 μM P450 concentration in 5-cm optical path length cuvettes. Aliquots of 0.1 mM compounds dissolved in dimethyl sulfoxide (DMSO) were added to the sample cuvette, with each titration step being 0.1 μM. At each step, the corresponding volume of DMSO was added to the reference cuvette. The apparent spectral dissociation constants (Kd) were calculated in GraphPad Prism software as described for human CYP51[21].

human CYP51 [6] = test system: human CYP51; set-up: method as in PMID 27313059; details: 50-fold molar excess of inhibitor over enzyme, 1-hour reaction; cited from earlier work
[7] = test system: CC(C)=CCC[C@@H](C)[C@H]1CC[C@@]2(C)C3=C(CC[C@]12C)[C@@]1(C)CC[C@H](O)C(C)(C)[C@@H]1CC3; experiment: purified protein, by the assay type; details: other: 0.25 μM P450, 1 μM CPR, 1 min reaction, 37 °C
Experimental: as §1

[8] = test system: C=C(CC[C@@H](C)[C@H]1CC[C@@]2(C)C3=C(CC[C@]12C)[C@@]1(C)CC[C@H](O)[C@@H](C)[C@@H]1CC3)C(C)C; experiment: purified protein, by the assay type; details: other: 0.25 μM P450, 1 μM CPR, 1 min reaction, 37 °C
Experimental: as §1

[9] = test system: C=C(CC[C@@H](C)C1CC[C@@]2(C)C3=C(CC[C@]12C)[C@@]1(C)CC[C@H](O)C(C)(C)C1CC3)C(C)C; experiment: purified protein, by the assay type; details: other: 0.25 μM P450, 1 μM CPR, 1 min reaction, 37 °C
Experimental: as §1

C. armatus CYP51 [10] = biological target: T1, C. armatus CYP51; experiment: Stabilizing effect of TMAO registered by CO-binding spectra
Experimental: Absorption spectra (270–700 nm) were recorded at 22 °C using a dual-beam Shimadzu UV-2600i spectrophotometer and software UVProbe2.71. The P450 concentration was determined from the Soret band absorbance in the absolute spectrum, the extinction coefficient 117 mM^−1 cm^−1 for the low-spin ferric form or 91 mM^−1 cm^−1 for the reduced (ferrous) carbon monoxide (CO) complex in the difference spectra[51].The spin state of the P450 samples was estimated from the absolute spectra using the ratio (ΔA393–470/ΔA417–470), with values of 0.35 and 2.0 corresponding to 100% low- and 100% high-spin iron, respectively.
After data collection the crystals were dissolved in phosphate buffered saline (PBS, Gibco). UV-visible absolute absorption spectra (270–700 nm) were recorded at room temperature using a single beam spectrophotometer NanoVue,4282 (CE Healthcare) (Figure S4A). CO-binding difference absorption spectra (400–500 nm) were recorded using a dual-beam Shimadzu UV-2600i spectrophotometer as follows. The CO gas was bubbled through the protein solution, which was then divided into two cuvettes serving as a blank and standard, respectively. The baseline was taken, and a few crystals of sodium dithionate were added to the sample cuvette (Figure S4B). The corresponding spectra of the original protein sample that was used for crystallization were taken for comparison.

T1 sequence (Z9AQN8BZD8 6-449 limits assumed): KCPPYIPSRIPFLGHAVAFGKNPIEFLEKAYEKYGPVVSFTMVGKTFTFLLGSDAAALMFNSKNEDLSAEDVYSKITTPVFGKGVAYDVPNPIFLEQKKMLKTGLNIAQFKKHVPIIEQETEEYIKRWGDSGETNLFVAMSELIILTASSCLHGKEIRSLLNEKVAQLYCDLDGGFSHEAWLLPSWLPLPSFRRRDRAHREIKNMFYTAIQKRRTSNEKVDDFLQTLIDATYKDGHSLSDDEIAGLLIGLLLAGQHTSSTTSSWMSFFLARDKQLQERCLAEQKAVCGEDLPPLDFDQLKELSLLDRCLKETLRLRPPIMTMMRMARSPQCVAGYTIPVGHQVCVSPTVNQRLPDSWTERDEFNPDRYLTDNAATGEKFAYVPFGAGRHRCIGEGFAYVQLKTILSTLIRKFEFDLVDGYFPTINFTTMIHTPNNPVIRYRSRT

With `C=C(CC[C@@H](C)[C@H]1CC[C@@]2(C)C3=C(CC[C@]12C)[C@@]1(C)CC[C@H](O)[C@@H](C)[C@@H]1CC3)C(C)C` [Obtusifoliol] the kcat (C. armatus CYP51 [1]) was 0.865 s⁻¹, the Kd (C. armatus CYP51 [2]) was 0.56 µM and the “Low-to-high spin state transition in the heme iron” value (“Low-to-high spin state transition” below) (C. armatus CYP51 [2]; P450 2 μM) was 13%. The “Change in absorbance, ΔAmax per μM P450” value (C. armatus CYP51 [2]; P450 2 μM) was 14.
With `O[C@@](Cn1cnnn1)(c1ccc(F)cc1F)C(F)(F)c1ccc(-c2ccc(OCC(F)(F)F)cc2)cn1` [oteseconazole] the “inhibition of C. armatus CYP51 activity” value (C. armatus CYP51 [3]) was “did not have any inhibitory effect”.
For `C[C@@H](c1ncncc1F)[C@](O)(Cn1cncn1)c1ccc(F)cc1F` [voriconazole], the Kd (human CYP51 [4]) is listed as 2.53 µM, the Kd (C. armatus CYP51 [5]) is listed as 0.61 µM and the “inhibition of C. armatus CYP51 activity” value (C. armatus CYP51 [3]) is listed as “did not have any inhibitory effect”.
For `N#Cc1ccc(COc2ccc(C#Cc3ccc(C(F)(F)[C@](O)(Cn4cnnn4)c4ccc(F)cc4F)nc3)cc2)cc1` [VT-1598], the “inhibition of C. armatus CYP51 activity” value (C. armatus CYP51 [3]) was “did not have any inhibitory effect”.
For `CC(=O)N1CCN(c2ccc(OCC3COC(Cn4ccnc4)(c4ccc(Cl)cc4Cl)O3)cc2)CC1` (stereo not drawn) [ketoconazole], the Kd (human CYP51 [4]) is listed as 0.07 µM, the Kd (C. armatus CYP51 [5]) is listed as 0.01 µM and the “lanosterol converted in presence of inhibitor” value (human CYP51 [6]) is listed as 100%.
For `CC[C@@H]([C@H](C)O)n1ncn(-c2ccc(N3CCN(c4ccc(OC[C@@H]5CO[C@@](Cn6cncn6)(c6ccc(F)cc6F)C5)cc4)CC3)cc2)c1=O` [posaconazole], the “inhibition of C. armatus CYP51 activity” value (C. armatus CYP51 [3]) was “did not have any inhibitory effect”.
For `C=C(CC[C@@H](C)C1CC[C@@]2(C)C3=C(CC[C@]12C)[C@@]1(C)CC[C@H](O)C(C)(C)C1CC3)C(C)C` (stereo partly drawn), the kcat (C. armatus CYP51 [1]) was 1.03 s⁻¹, the Kd (C. armatus CYP51 [2]; read-out: Kd (apparent spectral dissociation constant), sterol substrate, P450 2 μM) was 1.02 µM and the “Low-to-high spin state transition” value (C. armatus CYP51 [2]; P450 2 μM) was 27%. For the same compound, the “Change in absorbance, ΔAmax per μM P450” value (C. armatus CYP51 [2]; P450 2 μM) was 30.
With `C[C@@H](c1nc(-c2ccc(C#N)cc2)cs1)[C@](O)(Cn1cncn1)c1cc(F)ccc1F` [isavuconazole] the “inhibition of C. armatus CYP51 activity” value (C. armatus CYP51 [3]) was “did not have any inhibitory effect”.
Compound “C. armatus CYP51 (Coryphaenoides armatus)” has a Km [7] of 8.1 µM, a kcat [7] of 0.797 s⁻¹ and a kcat/Km [7] of 98300 M⁻¹ s⁻¹. It also gave a Km [8] of 7.9 µM, a kcat [8] of 0.865 s⁻¹ and a kcat/Km [8] of 110000 M⁻¹ s⁻¹. For the same compound, the Km [9] was 13.0 µM, the kcat [9] was 1.03 s⁻¹ and the kcat/Km [9] was 80000 M⁻¹ s⁻¹.
In the case of `C[N+](C)(C)[O-]` [TMAO, trimethylamine oxide], the “spectral response in the heme iron” value (C. armatus CYP51 [10]) is reported as “does not cause any spectral response” and the “P450 recovery after overnight incubation (CO-binding spectra)” value (C. armatus CYP51 [10]; 10 μM TMAO, overnight storage at 4 °C in PBS) is reported as 90%.
In the case of `CC(C)=CCC[C@@H](C)[C@H]1CC[C@@]2(C)C3=C(CC[C@]12C)[C@@]1(C)CC[C@H](O)C(C)(C)[C@@H]1CC3` [Lanosterol], the kcat (C. armatus CYP51 [1]) is reported as 0.797 s⁻¹, the Kd (C. armatus CYP51 [2]) is reported as 0.77 µM and the “Low-to-high spin state transition” value (C. armatus CYP51 [2]; P450 2 μM) is reported as 22%. For the same compound, the “Change in absorbance, ΔAmax per μM P450” value (C. armatus CYP51 [2]; P450 2 μM) was 24.
For `CCC(C)n1ncn(-c2ccc(N3CCN(c4ccc(OCC5COC(Cn6cncn6)(c6ccc(Cl)cc6Cl)O5)cc4)CC3)cc2)c1=O` (stereo not drawn) [itraconazole], the Kd (human CYP51 [4]) is listed as 1.29 µM, the Kd (C. armatus CYP51 [5]) is listed as 0.62 µM and the “inhibition of C. armatus CYP51 activity” value (C. armatus CYP51 [3]) is listed as “did not have any inhibitory effect”.
